According to US12692238B2, “Substituted pyridazinone herbicides” (FMC CORPORATION, priority 2020, dated 2026):

Experiments:
Type in all cases: in vivo
[1] = test system: ragweed (common ragweed, Ambrosia artemisiifolia); test: Test A postemergence, ragweed; details: Ambrosia artemisiifolia, post-emergence, 240 h, 10 days, read-out: Plant response rating, Ragweed; for pest or weed control at 31 g/ha: 31 g ai/ha, postemergence, 0 to 100 scale (0 no effect, 100 complete control); for pest or weed control at 125 g/ha: Postemergence, 125 g ai/ha, 0 to 100 scale
Method in brief: (§1)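 Scores reflect visual injury versus untreated controls after 10 days in a greenhouse, on a scale from 0 (none) to 100 (complete control); pre- and postemergence sprays used loam/sand pots, postemergence at the one- to two-leaf stage.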

[2] = test system: barnyardgrass (Echinochloa crus-galli); test: Test A postemergence, barnyardgrass; details: 10 days
Method in brief: as §1

[3] = test system: barnyardgrass (Echinochloa crus-galli); test: Test B flooded paddy test, barnyardgrass; details: Echinochloa crus-galli; 250 g ai/ha, Flood; visually evaluated after 10 to 14 days; read-out: Plant response rating, Barnyardgrass (0 to 100 scale where 0 is no effect and 100 is complete control)
Method in brief: (§2)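 Plants grown to 2-leaf stage; pots flooded 3 cm above soil and compound applied directly into paddy water, depth maintained throughout. After 10 to 14 days in greenhouse, visual rating versus controls on 0–100 scale (0 no effect, 100 complete control).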

[4] = test system: foxtail, giant (giant foxtail, Setaria faberi); test: Test A preemergence, foxtail, giant; details: Setaria faberi, pre-emergence, 240 h, 0 to 100 scale, 10 days, read-out: Plant response rating, Foxtail, Giant; for pest or weed control at 31 g/ha: 31 g ai/ha; for pest or weed control at 125 g/ha: 125 g ai/ha
Method in brief: as §1

[5] = test system: barnyardgrass (Echinochloa crus-galli); test: Test A preemergence, barnyardgrass; details: 10 days
Method in brief: as §1

[6] = test system: ryegrass, Italian (Italian ryegrass, Lolium multiflorum); test: Test A postemergence, ryegrass, Italian; details: Lolium multiflorum, post-emergence, 240 h, 10 days, read-out: Plant response rating, Ryegrass, Italian; for pest or weed control at 31 g/ha: 31 g ai/ha, postemergence, 0 to 100 scale (0 no effect, 100 complete control); for pest or weed control at 125 g/ha: Postemergence, 125 g ai/ha, 0 to 100 scale
Method in brief: as §1

[7] = test system: foxtail, giant (giant foxtail, Setaria faberi); test: Test A postemergence, foxtail, giant; details: Setaria faberi, post-emergence, 240 h, 10 days, read-out: Plant response rating, Foxtail, Giant; for pest or weed control at 31 g/ha: 31 g ai/ha; for pest or weed control at 125 g/ha: 125 g ai/ha
Method in brief: as §1

[8] = test system: sedge, umbrella (small-flower umbrella sedge, Cyperus difformis); test: Test B flooded paddy test, sedge, umbrella; details: Cyperus difformis; 250 g ai/ha, Flood; visually evaluated after 10 to 14 days; read-out: Plant response rating, Sedge, Umbrella (0 to 100 scale where 0 is no effect and 100 is complete control)
Method in brief: as §2

rice (Oryza sativa) = test: Test B flooded paddy test, rice; details: Oryza sativa; 250 g ai/ha, Flood; visually evaluated after 10 to 14 days; read-out: Plant response rating, Rice (0 to 100 scale where 0 is no effect and 100 is complete control)
Method in brief: as §2

[9] = test system: ducksalad (Heteranthera limosa); test: Test B flooded paddy test, ducksalad; details: Heteranthera limosa; 250 g ai/ha, Flood; visually evaluated after 10 to 14 days; read-out: Plant response rating, Ducksalad (0 to 100 scale where 0 is no effect and 100 is complete control)
Method in brief: as §2

[10] = test system: redroot pigweed (Amaranthus retroflexus); test: Test A postemergence, redroot pigweed; details: 10 days
Method in brief: as §1

kochia (Bassia scoparia) [11] = test: Test A postemergence, kochia; details: Bassia scoparia, post-emergence, 240 h, 10 days, read-out: Plant response rating, Kochia; for pest or weed control at 31 g/ha: 31 g ai/ha, postemergence, 0 to 100 scale (0 no effect, 100 complete control); for pest or weed control at 125 g/ha: Postemergence, 125 g ai/ha, 0 to 100 scale
Method in brief: as §1

[12] = test system: redroot pigweed (Amaranthus retroflexus); test: Test A preemergence, redroot pigweed; details: 0 to 100 scale, 10 days
Method in brief: as §1

kochia (Bassia scoparia) [13] = test: Test A preemergence, kochia; details: Bassia scoparia, pre-emergence, 240 h, 0 to 100 scale, 10 days, read-out: Plant response rating, Kochia; for pest or weed control at 31 g/ha: 31 g ai/ha; for pest or weed control at 125 g/ha: 125 g ai/ha
Method in brief: as §1

[14] = test system: ryegrass, Italian (Italian ryegrass, Lolium multiflorum); test: Test A preemergence, ryegrass, Italian; details: Lolium multiflorum, pre-emergence, 240 h, 0 to 100 scale, 10 days, read-out: Plant response rating, Ryegrass, Italian; for pest or weed control at 31 g/ha: 31 g ai/ha; for pest or weed control at 125 g/ha: 125 g ai/ha
Method in brief: as §1

[15] = test system: galium (catchweed bedstraw, Galium aparine); test: Test A postemergence, galium; details: Galium, post-emergence, 240 h, 10 days, read-out: Plant response rating, Galium; for pest or weed control at 31 g/ha: 31 g ai/ha, postemergence, 0 to 100 scale (0 no effect, 100 complete control); for pest or weed control at 125 g/ha: Postemergence, 125 g ai/ha, 0 to 100 scale
Method in brief: as §1

[16] = Postemergence, 31 g ai/ha, 0 to 100 scale
[17] = Postemergence, 125 g ai/ha, 0 to 100 scale
[18] = 125 g ai/ha, 0 to 100 scale (0 no effect, 100 complete control)
[19] = 31 g ai/ha, postemergence, 0 to 100 scale (0 no effect, 100 complete control)

SMILES: CC(=O)OCOc1c(Cl)nn(C)c(=O)c1-c1c2ccccc2c(Cl)c2ccccc12 [Compound 11, 5-[(acetyloxy)methoxy]-6-chloro-4-(10-chloro-9-anthracenyl)-2-methyl-3(2H)-pyridazinone]
- pest or weed control at 31 g/ha [1]: 100%
- pest or weed control at 125 g/ha [1]: 100%
- Plant response rating, Barnyardgrass [2, 16]: 20
- Plant response rating, Barnyardgrass [2, 17]: 30
- pest or weed control at 250 g/ha [3]: 15%
- pest or weed control at 31 g/ha [4]: 10%
- pest or weed control at 125 g/ha [4]: 60%
- Plant response rating, Barnyardgrass ([5]; 31 g ai/ha, 0 to 100 scale): 20
- Plant response rating, Barnyardgrass [5, 18]: 30
- pest or weed control at 31 g/ha [6]: 10%
- pest or weed control at 125 g/ha [6]: 70%
- pest or weed control at 31 g/ha ([7]; Postemergence, 0 to 100 scale): 30%
- pest or weed control at 125 g/ha ([7]; Postemergence, 0 to 100 scale): 80%
- pest or weed control at 250 g/ha [8]: 95%
- plant injury at 250 g/ha (rice (Oryza sativa)): 0%
- pest or weed control at 250 g/ha [9]: 80%
- Plant response rating, Pigweed, Redroot [10, 19]: 100
- Plant response rating, Pigweed, Redroot [10, 17]: 100
- pest or weed control at 31 g/ha (kochia (Bassia scoparia) [11]): 0%
- pest or weed control at 125 g/ha (kochia (Bassia scoparia) [11]): 50%
- Plant response rating, Pigweed, Redroot ([12]; 31 g ai/ha): 100
- Plant response rating, Pigweed, Redroot ([12]; 125 g ai/ha): 100
- pest or weed control at 31 g/ha (kochia (Bassia scoparia) [13]): 0%
- pest or weed control at 125 g/ha (kochia (Bassia scoparia) [13]): 10%
- pest or weed control at 31 g/ha [14]: 0%
- pest or weed control at 125 g/ha [14]: 30%
- pest or weed control at 31 g/ha [15]: 100%
- pest or weed control at 125 g/ha [15]: 100%

SMILES: CC(=O)OCOc1c(Cl)nn(C)c(=O)c1-c1c2ccccc2cc2ccccc12 [Compound 10, 5-[(acetyloxy)methoxy]-4-(9-anthracenyl)-6-chloro-2-methyl-3(2H)-pyridazinone]
- pest or weed control at 31 g/ha [1]: 100%
- pest or weed control at 125 g/ha [1]: 100%
- Plant response rating, Barnyardgrass [2, 16]: 20
- Plant response rating, Barnyardgrass [2, 17]: 10
- pest or weed control at 250 g/ha [3]: 15%
- pest or weed control at 31 g/ha [4]: 0%
- pest or weed control at 125 g/ha [4]: 20%
- Plant response rating, Barnyardgrass ([5]; 31 g ai/ha, 0 to 100 scale): 0
- Plant response rating, Barnyardgrass [5, 18]: 0
- pest or weed control at 31 g/ha [6]: 0%
- pest or weed control at 125 g/ha [6]: 0%
- pest or weed control at 31 g/ha ([7]; Postemergence, 0 to 100 scale): 10%
- pest or weed control at 125 g/ha ([7]; Postemergence, 0 to 100 scale): 50%
- pest or weed control at 250 g/ha [8]: 95%
- plant injury at 250 g/ha (rice (Oryza sativa)): 0%
- pest or weed control at 250 g/ha [9]: 95%
- Plant response rating, Pigweed, Redroot [10, 19]: 100
- Plant response rating, Pigweed, Redroot [10, 17]: 100
- pest or weed control at 31 g/ha (kochia (Bassia scoparia) [11]): 0%
- pest or weed control at 125 g/ha (kochia (Bassia scoparia) [11]): 10%
- Plant response rating, Pigweed, Redroot ([12]; 31 g ai/ha): 100
- Plant response rating, Pigweed, Redroot ([12]; 125 g ai/ha): 100
- pest or weed control at 31 g/ha (kochia (Bassia scoparia) [13]): 0%
- pest or weed control at 125 g/ha (kochia (Bassia scoparia) [13]): 0%
- pest or weed control at 31 g/ha [14]: 0%
- pest or weed control at 125 g/ha [14]: 10%
- pest or weed control at 31 g/ha [15]: 90%
- pest or weed control at 125 g/ha [15]: 100%

SMILES: CC(=O)OCOc1c(C)nn(C)c(=O)c1-c1c2cc(C)ccc2cc2ccc(F)cc12 [Compound 24, 5-[(acetyloxy)methoxy]-4-(2-fluoro-7-methyl-9-anthracenyl)-2,6-dimethyl-3(2H)-pyridazinone]
- pest or weed control at 31 g/ha [1]: 80%
- pest or weed control at 125 g/ha [1]: 100%
- Plant response rating, Barnyardgrass [2, 19]: 80
- Plant response rating, Barnyardgrass [2, 17]: 90
- pest or weed control at 250 g/ha [3]: 70%
- pest or weed control at 31 g/ha [4]: 90%
- pest or weed control at 125 g/ha [4]: 100%
- Plant response rating, Barnyardgrass ([5]; 31 g ai/ha, 0 to 100 scale): 60
- Plant response rating, Barnyardgrass [5, 18]: 90
- pest or weed control at 31 g/ha [6]: 90%
- pest or weed control at 125 g/ha [6]: 90%
- pest or weed control at 31 g/ha ([7]; postemergence, 0 to 100 scale (0 no effect, 100 complete control)): 90%
- pest or weed control at 125 g/ha ([7]; Postemergence, 0 to 100 scale): 90%
- pest or weed control at 250 g/ha [8]: 80%
- plant injury at 250 g/ha (rice (Oryza sativa)): 50%
- pest or weed control at 250 g/ha [9]: 75%
- Plant response rating, Pigweed, Redroot [10, 19]: 100
- Plant response rating, Pigweed, Redroot [10, 17]: 100
- pest or weed control at 31 g/ha (kochia (Bassia scoparia) [11]): 90%
- pest or weed control at 125 g/ha (kochia (Bassia scoparia) [11]): 100%
- Plant response rating, Pigweed, Redroot ([12]; 31 g ai/ha): 100
- Plant response rating, Pigweed, Redroot ([12]; 125 g ai/ha): 100
- pest or weed control at 31 g/ha (kochia (Bassia scoparia) [13]): 70%
- pest or weed control at 125 g/ha (kochia (Bassia scoparia) [13]): 90%
- pest or weed control at 31 g/ha [14]: 50%
- pest or weed control at 125 g/ha [14]: 80%
- pest or weed control at 31 g/ha [15]: 100%
- pest or weed control at 125 g/ha [15]: 100%

SMILES: CC(=O)OCOc1c(Cl)nn(C)c(=O)c1-c1c(C)ccc2ccc(C)cc12 [Compound 3, 5-[(Acetyloxy)methoxy]-6-chloro-4-(2,7-dimethyl-1-naphthalenyl)-2-methyl-3(2H)-pyridazinone]
- pest or weed control at 31 g/ha [1]: 90%
- pest or weed control at 125 g/ha [1]: 100%
- Plant response rating, Barnyardgrass [2, 16]: 60
- Plant response rating, Barnyardgrass [2, 17]: 90
- pest or weed control at 250 g/ha [3]: 98%
- pest or weed control at 31 g/ha [4]: 10%
- pest or weed control at 125 g/ha [4]: 100%
- Plant response rating, Barnyardgrass ([5]; 31 g ai/ha, 0 to 100 scale): 60
- Plant response rating, Barnyardgrass [5, 18]: 100
- pest or weed control at 31 g/ha [6]: 80%
- pest or weed control at 125 g/ha [6]: 100%
- pest or weed control at 31 g/ha ([7]; Postemergence, 0 to 100 scale): 80%
- pest or weed control at 125 g/ha ([7]; Postemergence, 0 to 100 scale): 90%
- pest or weed control at 250 g/ha [8]: 98%
- plant injury at 250 g/ha (rice (Oryza sativa)): 0%
- pest or weed control at 250 g/ha [9]: 95%
- Plant response rating, Pigweed, Redroot [10, 19]: 100
- Plant response rating, Pigweed, Redroot [10, 17]: 100
- pest or weed control at 31 g/ha (kochia (Bassia scoparia) [11]): 60%
- pest or weed control at 125 g/ha (kochia (Bassia scoparia) [11]): 80%
- Plant response rating, Pigweed, Redroot ([12]; 31 g ai/ha): 100
- Plant response rating, Pigweed, Redroot ([12]; 125 g ai/ha): 100
- pest or weed control at 31 g/ha (kochia (Bassia scoparia) [13]): 10%
- pest or weed control at 125 g/ha (kochia (Bassia scoparia) [13]): 90%
- pest or weed control at 31 g/ha [14]: 20%
- pest or weed control at 125 g/ha [14]: 100%
- pest or weed control at 31 g/ha [15]: 100%
- pest or weed control at 125 g/ha [15]: 100%
